In patent US5928185A, “Iontophoresis device for the transcutaneous delivery of an active principle such as an anionic oligosaccharide” (Sanofi, priority 1995, dated 1999):

Experiments:
[1] = Administration of pentasaccharide sodium salt to minipigs by iontophoresis with periodic current reversal; plasma levels (Example 4); type: in vivo, minipig
Protocol: Administration to minipigs of the sodium salt of a pentasaccharide by iontophoresis with set current density with periodic reversal of the current direction.
The following iontophoretic administration tests were carried out on 4 minipigs by using the same current generator and the same type of electrodes as in Example 3, and by applying the following conditions:
The electrodes themselves consisted of 15 μm thick silver films chlorided by electrolytic oxidation in a ratio of 0.5 mAh of silver chloride per cm^2. The reservoirs, also measuring 20 cm^2, consisted of a sheet of blotting paper made of cellulose fibres supplemented with polypropylene fibrils, impregnated to a level of 50 mg/cm^2 with an aqueous solution containing 2% by weight of pentasaccharide and 0.2% by weight of NaCl. Each electrode, the anode and the cathode, contained in all 1 g of solution, i.e. 20 mg of pentasaccharide (1 mg/cm^2) for an active surface area of 20 cm^2. 40 mg of pentasaccharide were therefore engaged in all per animal.
The current generator delivered a constant intensity of 2.5 mA, i.e. 125 μA/cm^2 of direct current with regular reversals of the current direction every 30 minutes for a total time of 8 hours, corresponding to the passage of […] of direct current.
Each of the electrodes, having identical structure and composition, was therefore operated alternately as the cathode and then as the anode, the presence of sodium chloride in each of the reservoirs ensuring their permanent operation as a reversible electrode, thus avoiding any parasitic reaction of hydrolysis (with a change in the pH) or oxidation/reduction of the active principle.
In test 4a, involving 3 animals with an average weight of 11.8 kg, the electrodes were put in place but not connected to the current generator, whereas for all the tests 4b, which concerned 4 animals with an average weight of 12.3 kg, the current of 2.5 mA was applied for 8 hours with automated reversal of the current direction every half hour.
In tests 4a and 4b, a number of blood samples were taken periodically up to 30 hours after the start of each experiment, as in Example 3.
The plasma levels of the various samples are indicated in Table IV for the purpose of comparing tests 4a and 4b with one another and with the results of the tests carried out in Example 3, in particular tests 3c and 3d which correspond to intravenous and subcutaneous injections.

factor Xa = experiment: Antifactor Xa activity of the pentasaccharide sodium salt; type: biochemical
Protocol: The assay of the pentasaccharide in the receiver compartment was based on investigating its antifactor Xa activity. The assay was carried out either directly on the medium sampled from the receiver compartment or after dilution, using a ROTACHROM HEPARIN 8® assay kit, a complementary buffer for the assay instrument and bovine antithrombin III, these various elements being supplied by the company STAGO, using a HITACHI 717 assay instrument. The calibration curve was established using a "Golden Standard" pentasaccharide solution to which an antifactor Xa activity equal to 13 units per ml was assigned.

[2] = test 4b: iontophoresis 0.125 mA/cm^2, 8 hours, reversal every 30 minutes

**Q.** What does the source list for `O=C(O)C1OC(OC2C(COS(=O)(=O)O)OC(OC3C(C(=O)O)OC(OC4C(COS(=O)(=O)O)OC(O)C(NS(=O)(=O)O)C4O)C(OS(=O)(=O)O)C3O)C(NS(=O)(=O)O)C2OS(=O)(=O)O)C(O)C(O)C1OC1OC(COS(=O)(=O)O)C(O)C(O)C1NS(=O)(=O)O` (centres unmarked) [pentasaccharide]?
**A.** bioavailability ([1]; minipig, plasma, topical, test 4b, 40 mg engaged): ~21%; average quantity of pentasaccharide administered during the treatment ([1]; passive test 4a): zero; Initial plasma level ([1]; test 4a: passive, 0 mA/cm^2): 0 anti-Xa U/mL; Plasma level at 30 minutes ([1]; test 4a: passive, 0 mA/cm^2): 0; Plasma level at 1 hour ([1]; test 4a: passive, 0 mA/cm^2): 0; Plasma level at 2 hours ([1]; test 4a: passive, 0 mA/cm^2): 0; Plasma level at 4 hours ([1]; test 4a: passive, 0 mA/cm^2): 0; Plasma level at 6 hours ([1]; test 4a: passive, 0 mA/cm^2): 0; Plasma level at 8 hours ([1]; test 4a: passive, 0 mA/cm^2): 0; Plasma level at 10 hours ([1]; test 4a: passive, 0 mA/cm^2): 0; Plasma level at 12 hours ([1]; test 4a: passive, 0 mA/cm^2): 0; Plasma level at 16 hours ([1]; test 4a: passive, 0 mA/cm^2): 0; Plasma level at 26 hours ([1]; test 4a: passive, 0 mA/cm^2): 0; Plasma level at 30 hours ([1]; test 4a: passive, 0 mA/cm^2): 0; quantity of pentasaccharide administered per mAh ([1]; test 4b): 372 μg/cm^2; Initial plasma level [1, 2]: 0 anti-Xa U/mL; Plasma level at 30 minutes [1, 2]: 0.11 ± 0.05; Plasma level at 1 hour [1, 2]: 0.16 ± 0.05; Plasma level at 2 hours [1, 2]: 0.28 ± 0.1; Plasma level at 4 hours [1, 2]: 0.64 ± 0.2; Plasma level at 6 hours [1, 2]: 0.57 ± 0.18; Plasma level at 8 hours [1, 2]: 0.59 ± 0.15; Plasma level at 10 hours [1, 2]: 0.61 ± 0.16; Plasma level at 12 hours [1, 2]: 0.58 ± 0.05; Plasma level at 16 hours [1, 2]: 0.2 ± 0.05; Plasma level at 26 hours [1, 2]: 0.14 ± 0.02; Plasma level at 30 hours [1, 2]: 0.05 ± 0.02; average quantity of pentasaccharide administered during the treatment ([1]; test 4b, from area under the curve): 8.45 ± 1.5 mg; antifactor Xa activity (factor Xa): 0.65 "Golden Standard" units per microgram
